Results as given in ChEMBL document CHEMBL3421620, “A facile synthesis of novel miconazole analogues and the evaluation of their antifungal activity” (2015).
In brackets after ≈: the same amount, converted by molar mass. Blank lines part the entries; values can stand above or below the compound they belong to.

Columns and labels:
Assay type in all cases: functional
Candida albicans [1] = test: Antifungal activity against Candida albicans Strain 28 by broth microdilution method
Candida albicans [2] = test: Antifungal activity against Candida albicans Strain 1 by broth microdilution method
Nakaseomyces glabratus = test: Antifungal activity against Candida glabrata by broth microdilution method
Candida albicans [3] = test: Antifungal activity against Candida albicans Strain 3 by broth microdilution method
Candida parapsilosis = test: Antifungal activity against Candida parapsilosis by broth microdilution method; conditions: Lodderomyces parapsilosis
Candida tropicalis = test: Antifungal activity against Candida tropicalis ATCC 13803 by broth microdilution method
Candida albicans [4] = test: Antifungal activity against Candida albicans Strain 29 by broth microdilution method
Candida albicans [5] = test: Antifungal activity against Candida albicans Strain 26 by broth microdilution method
Candida albicans [6] = test: Antifungal activity against Candida albicans Strain 27 by broth microdilution method
Candida albicans [7] = test: Antifungal activity against Candida albicans Strain 24 by broth microdilution method
Candida albicans [8] = test: Antifungal activity against Candida albicans Strain 13 by broth microdilution method
Candida albicans [9] = test: Antifungal activity against Candida albicans Strain 22 by broth microdilution method
Candida albicans [10] = test: Antifungal activity against Candida albicans Strain 2 by broth microdilution method
Candida albicans [11] = test: Antifungal activity against Candida albicans Strain 25 by broth microdilution method
Candida albicans [12] = test: Antifungal activity against Candida albicans Strain 11 by broth microdilution method
Candida albicans [13] = test: Antifungal activity against Candida albicans Strain 7 by broth microdilution method
Candida albicans [14] = test: Antifungal activity against Candida albicans Strain 20 by broth microdilution method
Candida albicans [15] = test: Antifungal activity against Candida albicans ATCC 10231 by broth microdilution method
Candida albicans [16] = test: Antifungal activity against Candida albicans Strain 19 by broth microdilution method
Candida albicans [17] = test: Antifungal activity against Candida albicans Strain 8 by broth microdilution method
Candida albicans [18] = test: Antifungal activity against Candida albicans Strain 12 by broth microdilution method
Candida albicans [19] = test: Antifungal activity against Candida albicans Strain 21 by broth microdilution method
Candida albicans [20] = test: Antifungal activity against Candida albicans Strain 17 by broth microdilution method
Candida albicans [21] = test: Antifungal activity against Candida albicans Strain 9 by broth microdilution method
Rhizopus arrhizus = test: Antifungal activity against Rhizopus oryzae ATCC 10329 by broth microdilution method
[22] = Antifungal activity against Trichosporon cutaneum ATCC 28592 by broth microdilution method; conditions: Cutaneotrichosporon cutaneum
Mucor hiemalis = test: Antifungal activity against Mucor hiemalis ATCC 8690 by broth microdilution method
Candida albicans [23] = test: Antifungal activity against Candida albicans Strain 10 by broth microdilution method
Candida albicans [24] = test: Antifungal activity against Candida albicans Strain 23 by broth microdilution method
Yarrowia lipolytica = test: Antifungal activity against Candida lipolytica by broth microdilution method
Pichia kudriavzevii = test: Antifungal activity against Candida krusei by broth microdilution method
Candida albicans [25] = test: Antifungal activity against Candida albicans Strain 15 by broth microdilution method
Kluyveromyces marxianus = test: Antifungal activity against Candida pseudotropicalis by broth microdilution method
Candida albicans [26] = test: Antifungal activity against Candida albicans Strain 6 by broth microdilution method
Candida albicans [27] = test: Antifungal activity against Candida albicans Strain 4 by broth microdilution method
Candida albicans [28] = test: Antifungal activity against Candida albicans Strain 16 by broth microdilution method
Candida albicans [29] = test: Antifungal activity against Candida albicans Strain 5 by broth microdilution method
Candida albicans [30] = test: Antifungal activity against Candida albicans Strain 18 by broth microdilution method
Cyberlindnera jadinii = test: Antifungal activity against Candida utilis ATCC 9226 by broth microdilution method; conditions: Williopsis jadinii
Candida albicans [31] = test: Antifungal activity against Candida albicans Strain 14 by broth microdilution method
Aspergillus fumigatus = test: Antifungal activity against Aspergillus fumigatus 16907 by broth microdilution method

- MIC (Candida albicans [1]): 0.12 µg/mL (≈ 0.296 µM)
- MIC (Candida albicans [2]): 0.12 µg/mL (≈ 0.296 µM)
- MIC (Nakaseomyces glabratus): 0.25 µg/mL (≈ 0.617 µM)
- MIC (Candida albicans [3]): 0.12 µg/mL (≈ 0.296 µM)
- MIC (Candida parapsilosis): 0.12 µg/mL (≈ 0.296 µM)
- MIC (Candida tropicalis): 0.12 µg/mL (≈ 0.296 µM)
- MIC (Candida albicans [4]): 0.25 µg/mL (≈ 0.617 µM)
- MIC (Candida albicans [5]): 0.12 µg/mL (≈ 0.296 µM)
- MIC (Candida albicans [6]): 0.06 µg/mL (≈ 0.148 µM)
- MIC (Candida albicans [7]): 0.12 µg/mL (≈ 0.296 µM)
- MIC (Candida albicans [8]): 0.06 µg/mL (≈ 0.148 µM)
- MIC (Candida albicans [9]): 0.06 µg/mL (≈ 0.148 µM)
- MIC (Candida albicans [10]): 0.12 µg/mL (≈ 0.296 µM)
- MIC (Candida albicans [11]): 0.12 µg/mL (≈ 0.296 µM)
- MIC (Candida albicans [12]): 0.12 µg/mL (≈ 0.296 µM)
- MIC (Candida albicans [13]): 0.12 µg/mL (≈ 0.296 µM)
- MIC (Candida albicans [14]): 0.12 µg/mL (≈ 0.296 µM)
- MIC (Candida albicans [15]): 0.06 µg/mL (≈ 0.148 µM)
- MIC (Candida albicans [16]): 0.12 µg/mL (≈ 0.296 µM)
- MIC (Candida albicans [17]): 0.12 µg/mL (≈ 0.296 µM)
- MIC (Candida albicans [18]): 0.12 µg/mL (≈ 0.296 µM)
- MIC (Candida albicans [19]): 0.12 µg/mL (≈ 0.296 µM)
- MIC (Candida albicans [20]): 0.12 µg/mL (≈ 0.296 µM)
- MIC (Candida albicans [21]): 0.25 µg/mL (≈ 0.617 µM)
- MIC (Rhizopus arrhizus): > 16 µg/mL
- MIC [22]: 8 µg/mL (≈ 19.7 µM)
- MIC (Mucor hiemalis): > 16 µg/mL
- MIC (Candida albicans [23]): 0.12 µg/mL (≈ 0.296 µM)
- MIC (Candida albicans [24]): 0.06 µg/mL (≈ 0.148 µM)
- MIC (Yarrowia lipolytica): 0.12 µg/mL (≈ 0.296 µM)
- MIC (Pichia kudriavzevii): 0.12 µg/mL (≈ 0.296 µM)
- MIC (Candida albicans [25]): 0.12 µg/mL (≈ 0.296 µM)
- MIC (Kluyveromyces marxianus): 0.5 µg/mL (≈ 1.23 µM)
- MIC (Candida albicans [26]): 0.06 µg/mL (≈ 0.148 µM)
- MIC (Candida albicans [27]): 0.12 µg/mL (≈ 0.296 µM)
- MIC (Candida albicans [28]): 0.12 µg/mL (≈ 0.296 µM)
- MIC (Candida albicans [29]): 0.12 µg/mL (≈ 0.296 µM)
- MIC (Candida albicans [30]): 0.06 µg/mL (≈ 0.148 µM)
- MIC (Cyberlindnera jadinii): 0.25 µg/mL (≈ 0.617 µM)
- MIC (Candida albicans [31]): 0.06 µg/mL (≈ 0.148 µM)
- MIC (Aspergillus fumigatus): 4 µg/mL (≈ 9.87 µM)
SMILES: COC(=O)c1ccc(COC(Cn2ccnc2)c2ccc(Cl)cc2Cl)cc1 (configuration not stated)

- MIC (Candida albicans [1]): 0.5 µg/mL (≈ 1.17 µM)
- MIC (Candida albicans [2]): 0.25 µg/mL (≈ 0.587 µM)
- MIC (Nakaseomyces glabratus): 1 µg/mL (≈ 2.35 µM)
- MIC (Candida albicans [3]): 0.12 µg/mL (≈ 0.282 µM)
- MIC (Candida parapsilosis): 1 µg/mL (≈ 2.35 µM)
- MIC (Candida tropicalis): 0.5 µg/mL (≈ 1.17 µM)
- MIC (Candida albicans [4]): 0.5 µg/mL (≈ 1.17 µM)
- MIC (Candida albicans [5]): 0.25 µg/mL (≈ 0.587 µM)
- MIC (Candida albicans [6]): 0.25 µg/mL (≈ 0.587 µM)
- MIC (Candida albicans [7]): 0.12 µg/mL (≈ 0.282 µM)
- MIC (Candida albicans [8]): 0.25 µg/mL (≈ 0.587 µM)
- MIC (Candida albicans [9]): 0.12 µg/mL (≈ 0.282 µM)
- MIC (Candida albicans [10]): 0.25 µg/mL (≈ 0.587 µM)
- MIC (Candida albicans [11]): 0.25 µg/mL (≈ 0.587 µM)
- MIC (Candida albicans [12]): 0.25 µg/mL (≈ 0.587 µM)
- MIC (Candida albicans [13]): 0.25 µg/mL (≈ 0.587 µM)
- MIC (Candida albicans [14]): 0.12 µg/mL (≈ 0.282 µM)
- MIC (Candida albicans [15]): 0.06 µg/mL (≈ 0.141 µM)
- MIC (Candida albicans [16]): 0.25 µg/mL (≈ 0.587 µM)
- MIC (Candida albicans [17]): 0.5 µg/mL (≈ 1.17 µM)
- MIC (Candida albicans [18]): 0.25 µg/mL (≈ 0.587 µM)
- MIC (Candida albicans [19]): 0.5 µg/mL (≈ 1.17 µM)
- MIC (Candida albicans [20]): 0.25 µg/mL (≈ 0.587 µM)
- MIC (Candida albicans [21]): 0.5 µg/mL (≈ 1.17 µM)
- MIC (Rhizopus arrhizus): > 16 µg/mL
- MIC [22]: > 16 µg/mL
- MIC (Mucor hiemalis): > 16 µg/mL
- MIC (Candida albicans [23]): 0.25 µg/mL (≈ 0.587 µM)
- MIC (Candida albicans [24]): 0.12 µg/mL (≈ 0.282 µM)
- MIC (Yarrowia lipolytica): 1 µg/mL (≈ 2.35 µM)
- MIC (Pichia kudriavzevii): 0.5 µg/mL (≈ 1.17 µM)
- MIC (Candida albicans [25]): 0.5 µg/mL (≈ 1.17 µM)
- MIC (Kluyveromyces marxianus): 1 µg/mL (≈ 2.35 µM)
- MIC (Candida albicans [26]): 0.12 µg/mL (≈ 0.282 µM)
- MIC (Candida albicans [27]): 0.25 µg/mL (≈ 0.587 µM)
- MIC (Candida albicans [28]): 0.25 µg/mL (≈ 0.587 µM)
- MIC (Candida albicans [29]): 0.25 µg/mL (≈ 0.587 µM)
- MIC (Candida albicans [30]): 0.12 µg/mL (≈ 0.282 µM)
- MIC (Cyberlindnera jadinii): 0.5 µg/mL (≈ 1.17 µM)
- MIC (Candida albicans [31]): 0.12 µg/mL (≈ 0.282 µM)
- MIC (Aspergillus fumigatus): 8 µg/mL (≈ 18.8 µM)
SMILES: O=C(O)C(OC(Cn1ccnc1)c1ccc(Cl)cc1Cl)c1ccccc1Cl (configuration not stated)
